Laboratory results reported in patent US20260335294A1, “TREATING CONGENITAL DISORDERS OF GLYCOSYLATION” (Mayo Foundation for Medical Education and Research, priority 2022, published 2026).

What was measured:
[1] = system: pmm2 mutant zebrafish; experiment: Viability of treated zebrafish; type: in vivo
[2] = system: PMM2-CDG patients; experiment: Goal attainment scale (GAS) in patients on epalrestat; type: in vivo, human
Experimental: Two patients were started on epalrestat on single patient investigational new drug (IND) (P5 IRB: 19-010017; IND #145262; P6 Protocol PMM2-CDG-001/A). Epalrestat was initiated on the parents' own initiative in the third patient (P7). Two patients were in their second year of epalrestat treatment, while the third, was in the 3rd year of treatment. Physical, neurological, and biochemical examinations were performed in 3 PMM2-CDG patients at baseline, and at every three months after the start of the epalrestat treatment. Patients underwent NPCRS phenotype severity assessment and biological sampling at every visit. Epalrestat (Ono Pharmaceuticals, Osaka, Japan) was taken orally 3 times per day (TID) before meals in a divided dose, with dosage escalation throughout the treatment. The pharmacological profile of epalrestat was as described elsewhere (Ligezka et al, Ann. Neurol., 90(6):887-900 (2021)). The starting dosage in P5 and P6 was 0.8 mg/kg/day, while P7 was started on 0.5 mg/kg/day due to their young age. P7 dosage was increased to 0.8 mg/day after a month, once safety was established. Blood and urine samples were collected routinely. Urine polyols, carbohydrate deficient transferrin (CDT), anti-thrombin III (ATIII), liver enzymes (ALT, AST), and complete blood count (CBC) were performed. Modified Brief Ataxia Rating Scale was used to assess ataxia in the 2 patients (P5, P6; P7 was not eligible for the test due to age). The modified BARS scale included Archimedes spiral test, but not the abnormalities of the ocular pursuit system and the scale range was 0-54. Goal attainment scale (GAS) was administered as described per study protocol (ClinicalTrials.gov Identifier: NCT04199000). Quantification of goal attainment levels is done on a 5-point scale ranging from −2 to +2, with 0 indicating the expected level of goal attainment. Three individual goals were established by each patient (parent) at baseline and the progress was annually assessed. Goals included: walking without assistance (Goal #1 P5, P6), communicating with strangers (Goal #2 P5, P6), independent toilet training (Goal #3 P5), to be able to have a healthy and independent life (Goal #3 P6), to be able to equally play with peers (Goal #1 P7), normalization of laboratory results (liver enzymes) (Goal #2 P7), and improved balance to stand and walk (Goal #3 P7).

[3] = system: PMM2-CDG patients; experiment: Safety and tolerability of epalrestat in pediatric patients; type: in vivo, human
Experimental: The primary objective of the study was to assess the efficacy and safety of epalrestat treatment in 3 PMM2-CDG pediatric subjects prior to a planned Phase III clinical trial (Oral epalrestat therapy in Pediatric Subjects with PMM2-CDG, NCT04925960). […] The ability of epalrestat to inhibit polyol production was monitored by evaluating urine polyol levels (sorbitol, mannitol), which are elevated in PMM2-CDG. Next, carbohydrate deficient transferrin, which is abnormal in PMM2-CDG, was evaluated in order to assess improvement of glycosylation following epalrestat treatment. […] Changes in the liver enzymes AST, ALT, which are frequently elevated in PMM2-CDG, were monitored both as part of a safety study and as part of monitoring clinical improvement in coagulation. Neurologic improvement was assessed by modified BARS scores in 2 patients (3rd patient was not eligible for the test due to age at the start of the trial). NPCRS was assessed at every visit to assess changes in the severity of the patients' phenotype. Additionally, the frequency of adverse events, changes in vital signs, complete blood count, and changes in BMI were monitored. […]

SMILES: CC(/C=C1\SC(=S)N(CC(=O)O)C1=O)=C\c1ccccc1 [epalrestat]
- viability, treated vs untreated [1]: no significant difference
- Goal attainment scale, Goal 2 (scale −2 to +2) ([2]; P5, 12 months, 1.5 mg/kg day, communicating with strangers, baseline −2): −1
- Goal attainment scale, Goal 3 (scale −2 to +2) ([2]; P5, 12 months, 1.5 mg/kg day, independent toilet training, baseline −2): −2
- Goal attainment scale, Goal 1 (scale −2 to +2) ([2]; P5, 12 months, 1.5 mg/kg day, walking without assistance, baseline −2): −1
- Goal attainment scale, Goal 2 (scale −2 to +2) ([2]; P5, 24 months, 2 mg/kg day, communicating with strangers, baseline −2): −1
- Goal attainment scale, Goal 3 (scale −2 to +2) ([2]; P5, 24 months, 2 mg/kg day, independent toilet training, baseline −2): −2
- Goal attainment scale, Goal 1 (scale −2 to +2) ([2]; P5, 24 months, 2 mg/kg day, walking without assistance, baseline −2): −1
- Goal attainment scale, Goal 2 (scale −2 to +2) ([2]; P6, 12 months, 1.5 mg/kg day, communicating with strangers, baseline −1): −1
- Goal attainment scale, Goal 3 (scale −2 to +2) ([2]; P6, 12 months, 1.5 mg/kg day, healthy and independent life, baseline −2): −2
- Goal attainment scale, Goal 1 (scale −2 to +2) ([2]; P6, 12 months, 1.5 mg/kg day, walking without assistance, baseline −2): −1
- Goal attainment scale, Goal 1 (scale −2 to +2) ([2]; P7, 12 months, 1.5 mg/kg day, equally play with peers, baseline −2): −2
- Goal attainment scale, Goal 3 (scale −2 to +2) ([2]; P7, 12 months, 1.5 mg/kg day, improved balance to stand and walk, baseline −2): −1
- Goal attainment scale, Goal 2 (scale −2 to +2) ([2]; P7, 12 months, 1.5 mg/kg day, normalization of laboratory results (liver enzymes), baseline −2): −1
- clinical improvement and quality of life (GAS, self-reported) ([2]; all patients, words): all patients self-reported clinical improvement and quality of life improvement
- tolerability of escalating doses ([3]; three pediatric patients P5-7): well-tolerated
- side-effects ([3]; three pediatric patients P5-7, oral TID, long-term): No side-effects were observed
